Experiments:
[1] = system: monomeric heme; assay: Heme affinity measurement, monomeric heme; type: binding; conditions: acidic 40% DMSO
Protocol: To test whether binding to Hz precursors is also altered for the 4S and 4O derivatives, binding constants were measured as previously described for both μ-oxo dimeric and monomeric heme (FIG. 25). […] J. Am. Chem. Soc. 1988, 110, 4391-4395; Egan, T. J.; Mavuso, W. W.; Ross, D. C.; Marques, H. M. Thermodynamic factors controlling the interaction of quinoline antimalarial drugs with ferriprotoporphyrin IX. J. Inorg. Biochem. 1997, 68, 137-145; and Egan, T. J.; Ncokazi, K. K. Effects of solvent composition and ionic strength on the interaction of quinoline antimalarials with ferriprotoporphyrin IX. J. Inorg. Biochem. 2004, 98, 144-152. Due to the instability of monomeric heme in aqueous solution, the affinity to monomer measured by conventional absorbance experiments can only be estimated using 40% DMSO in water as solvent. Egan, T. J.; Ncokazi, K. K. Effects of solvent composition and ionic strength on the interaction of quinoline antimalarials with ferriprotoporphyrin IX. J. Inorg. Biochem. 2004, 98, 144-152. At appropriately acidic solution pH (≦5.0) FPIX heme is primarily monomeric, whereas at pH 7, appreciable dimer is formed. As shown (FIG. 25), CQ and compounds 88, 93, and 98 all have poor affinity for monomeric heme in acidic 40% DMSO. To further test if CQ interacts with monomeric heme, T1 measurements of the CQ protons were made with samples containing 10 mM CQ and 2 mM hemin chloride in 40% DMSO at pH 5.0. Although the lines are broadened in this solution due to paramagnetic susceptibility, the measured T1's indicate only weak paramagnetic relaxation. For example, the measured T1 for CQ proton 1 in this sample is 0.70 s, whereas at pH 7.0 the T1 for the same proton is 0.039 s.
To measure affinity for monomeric heme, 1.2 mM stock solutions of hemin (sodium salt from Sigma-Aldrich) were prepared in DMSO and stored as […] aliquots. 4.8 μM working solutions were prepared in 40% DMSO/phosphate buffer (fresh stocks prepared daily). Stock solutions of CQ and CQ analogues (diphosphate or dihydrochloride salts) were prepared in 40% DMSO/phosphate buffer and used for the titration experiments (all drugs dilutions were prepared in the same buffer).
1.5 mL cuvettes containing freshly prepared samples of 4.8 μM heme were titrated with increasing concentrations (0-50 μM) of drug. Following each addition, the sample was mixed and heme absorbance then recorded at 402 nm. Control experiments were performed by titrating 4.8 μM heme with similar volumes of solvent and no drug present. […] The absorbance peak analysis was done using Microsoft excel and Ka were extracted from the ΔAbs402 plots via Scatchard analysis using Microsoft Excel and Sigma plot 9.0.1 software.

[2] = system: hemozoin (Hz) formation; assay: Quantification of in vitro Hz formation inhibition; type: biochemical
Protocol: A stock solution of 5 mM hemin (Fluka) in 0.1M NaOH was prepared and stored as small aliquots at -20° C. Fresh aliquots were thawed daily to room temperature before use. Lecithin stock solutions were prepared by dissolving in distilled water to 10 mg/ml and similarly stored. 0.5 M propionate was used to buffer experiments in the pH range 5.2-5.6. The assay mixture (1 mL volumes) contained: 200 μL lecithin solution ([…] final) 20 μL hematin (100 μM final concentration) 20 μ[…] propionate buffer (X) μL drug (dependant on the concentration required 0-1000 μM). The addition sequence involved first adding the lecithin followed by heme, HCl, propionate buffer and finally the drug. Each sample was prepared in triplicate. Following addition of the reagents the samples were incubated at 37° C. with constant shaking for 18 h. After 18 h the assay was stopped by spinning the samples at 13,200 rpm for 10 minutes followed by carefully aspirating off the supernatant. The pellet was then resuspended in 50 mM bicarbonate buffer pH 9.0 (1 mL) and gently shaken at room temperature for 30 minutes to dissolve uncrystallized heme. The samples were then centrifuged as above and the supernatant removed. […] The samples were then dissolved in 0.1M NaOH to solubilize β-hematin to free heme and β-hematin formed was then quantified via heme absorbance at 402 nm. Calibration curves were prepared by titrating increasing amounts of heme in the same solvent vs. absorbance at 402 nm.

- fold higher IC50 for Hz inhibition relative to 98 [2]: roughly 5 fold
Compound: CCN(CC)CCCCOc1ccnc2cc(Cl)ccc12 [compound 93, O-(7-Chloro-4-quinolyl)-4-(N,N-diethylamino)butanol]
- affinity for monomeric heme [1]: poor affinity
- ability to inhibit Hz formation vs. that measured for CQ and 8 ([2]; FIG. 26): significantly lower

Reference: patent publication US20110045100A1, “Antimalarial Quinolines and Methods of Use Thereof” (GEORGETOWN UNIVERSITY, priority 2008, published 2011)
